Results as given in patent US9596857B2, “Insecticidal and miticidal mixtures of bifenthrin and cyano-pyrethroids” (FMC Corporation, priority 2005, dated 2017).

What was measured:
Type in all cases: in vivo
[1] = system: Colorado potato beetle (Leptinotarsa decemlineata [Say]); experiment: Foliar leaf-dip test against adult Colorado potato beetle on tomato plants; details: technical, 72 h
Procedure: (§1) Candidate insecticide compositions were evaluated for activity in foliar evaluations against tobacco budworm (Heliothis virescens [Fabricius]), Colorado potato beetle (Leptinotarsa decemlineata [Say]), corn earworm (Helicoverpa zea [Boddie]), cotton aphid (Aphis gossypii [Glover]) and twospotted spider mite (Tetranychus urticae [Koch]). Each test included controls in which the formulation or test solution minus the active ingredients were applied.
In tests against adult Colorado potato beetle, the leaves of 6-8 inch tall tomato plants (Lycopersicon lycoper) were dipped into the test solutions of the test formulations to provide application rates as high as 1000 ppm of the active ingredients. The test formulations were dissolved in distilled water containing 10% acetone and 0.25% of a non-ionic detergent [an octylphenolpoly(ethyleneglycolether)x, available from Roche Applied Science as Triton X-100] to the proper concentrations. The treated plants were transferred to a hood where they were kept until the leaves had dried. For tests in which the active ingredients were not formulated, i.e. the technical active ingredient was used; a stock solution of the test compound was made. For example, a 100 ppm stock solution may be made by dissolving 4 milligrams of the test compound in 4 mL of acetone and adding the solution to 36 mL of an aqueous Triton X-100 solution (one drop of Triton X-100 dissolved in 100 mL of distilled water). Further dilutions can be made by adding distilled water containing 10% acetone and 0.25% of Triton X-100.
The treated tomato plants were removed from their pots by cutting the stems just above the soil line. Each excised plant was placed into an individual 8-ounce paper cup. Ten adult Colorado potato beetles were placed into each paper cup, taking care not to cause injury. An opaque plastic lid was placed on each cup, for a 72 hour exposure period and held at 25° C., 50% relative humidity with a photo-period of 12 hours light and 12 hours dark. At the end of the 72 hour exposure period, the cups were opened, and the numbers of dead and live insects were counted. Using the insect counts, the activity of the test chemical was expressed in percent control. Percent control is derived from the total number of dead insects (TD) compared to the total number of insects (TI) in the test: […]

[2] = system: cotton aphid (Aphis gossypii [Glover]); experiment: Foliar leaf-dip test against cotton aphid on tomato plants; details: technical, 72 h
Procedure: as §1
In tests against cotton aphid, the leaves of 6 to 8 inch tall tomato plants (Lycopersicon lycoper) were infested with about 50 cotton aphids by placing leaf cuttings from a cotton aphid colony host tomato plant. After about 12 hours the newly infested tomato leaves were dipped into the test solutions of the test formulations to provide application rates as high as 1000 ppm of the active ingredients. The test formulations were dissolved in, and diluted as necessary, with distilled water containing 10% acetone and 0.25% of a non-ionic detergent [an octylphenolpoly(ethyleneglycolether)x, available from Roche Applied Science as Triton X-1001 to the proper concentrations. After treatment, a square of parafilm was placed around the stem of each test plant, covering the soil of each pot in order to catch dead aphids that fall from the leaves. The treated plants were transferred to a hood where they were kept until the leaves had dried. Once dry, the potted plants were placed into a tray containing at least one inch of water. The plants were spaced far enough apart to prevent the aphids from moving between plants. The trays were held in a growth chamber for 72 hours at 25° C., 50% relative humidity and a photoperiod of 14 hours light/10 hours dark. For tests in which the active ingredients were not formulated, i.e. the technical active ingredient was used; a stock solution of the test compound was made. For example, a 100 ppm stock solution may be made by dissolving 4 milligrams of the test compound in 4 mL of acetone and adding the solution to 36 mL of an aqueous Triton X-100 solution (one drop of Triton X-100 dissolved in 100 mL of distilled water). Further dilutions can be made by adding distilled water containing 10% acetone and 0.25% of Triton X-100.
At the end of the 72 hour exposure period the numbers of dead and live insects were counted. Insects were classified as “dead” if they were off-color or brown and desiccated. Using the insect counts, the activity of the test chemical was expressed in percent control. Percent control is derived from the total number of dead insects (TD) compared to the total number of insects (TI) in the test: […]

[3] = system: twospotted spider mite (Tetranychus urticae [Koch]); experiment: Foliar leaf-dip test against twospotted spider mite on pinto bean plants; details: technical, 96 h
Procedure: as §1
In tests against twospotted spider mites, the leaves of potted 3 to 4 inch tall pinto bean plants (Phaseolus vulgaris) were infested with about 50 to 75 adult twospotted spider mites by placing leaf cuttings from a twospotted spider mite colony host pinto bean plant on the upper surface of the test plant leaves. After about 1 hour the newly infested pinto bean leaves were dipped into the test solutions of the test formulations to provide application rates as high as 1000 ppm of the active ingredients. The test formulations were dissolved in, and diluted as necessary, with distilled water containing 10% acetone and 0.25% of a non-ionic detergent [an octylphenolpoly(ethyleneglycolether)x, available from Roche Applied Science as Triton X-100] to the proper concentrations. The treated plants were transferred to a hood where they were kept until the leaves had dried. Once dry, the potted plants were placed into a tray containing at least one inch of water. The plants were spaced far enough apart to prevent the mites from moving between plants. The trays were held in a growth chamber for 96 hours at 25° C., 50% relative humidity and a photoperiod of 14 hours light/10 hours dark. For tests in which the active ingredients were not formulated, i.e. the technical active ingredient was used; a stock solution of the test compound was made. For example, a 100 ppm stock solution may be made by dissolving 4 milligrams of the test compound in 4 mL of acetone and adding the solution to 36 mL of an aqueous Triton X-100 solution (one drop of Triton X-100 dissolved in 100 mL of distilled water). Further dilutions can be made by adding distilled water containing 10% acetone and 0.25% of Triton X-100.
At the end of the 96 hour exposure period the numbers of dead and live insects were counted. […] Using the insect counts, the activity of the test chemical was expressed in percent control. Percent control is derived from the total number of dead insects (TD) compared to the total number of insects (TI) in the test: […]

[4] = system: corn earworm (Helicoverpa zea [Boddie]); experiment: Cotton leaf-disc dip test against corn earworm; details: technical, 96 h
Procedure: as §1
In tests against corn earworm, one inch diameter leaf discs cut from cotton plant leaves (Gossypium hirsutum) were dipped into the test solutions of the test formulations to provide application rates as high as 1000 ppm of the active ingredients. The test formulations were dissolved in distilled water containing 10% acetone and 0.25% of a non-ionic detergent [an octylphenolpoly(ethyleneglycolether)x, available from Roche Applied Science as Triton X-100] to the proper concentrations. Cotton wicks, 0.5 inch diameter by 2 inches long, were soaked with distilled water and placed into the wells of a 32 well rearing tray (available as Rearing Tray Bio-Fit 32, from C-D International, Pittman, N.J.), one wick per well. Treated leaf discs were placed on top of the cotton wicks, one leaf disc per wick, and the rearing tray was transferred to a hood where they were kept until the leaf discs had dried. Each disc was infested with 1 late second to early third instar corn earworm, replicated sixteen times per rate of application, and a lid was placed on the rearing tray. The rearing trays were held in a growth chamber for 96 hours at 25° C., 50% relative humidity and a photoperiod of 12 hours light/12 hours dark. For tests in which the active ingredients were not formulated, i.e. the technical active ingredient was used; a stock solution of the test compound was made. For example, a 100 ppm stock solution may be made by dissolving 4 milligrams of the test compound in 4 mL of acetone and adding the solution to 36 mL of an aqueous Triton X-100 solution (one drop of Triton X-100 dissolved in 100 mL of distilled water). Further dilutions can be made by adding distilled water containing 10% acetone and 0.25% of Triton X-100.
At the end of the 96 hour exposure period, the rearing tray was opened, and the numbers of dead and live insects were counted. […] Using the insect counts, the activity of the test chemical was expressed in percent control. Percent control is derived from the total number of dead insects (TD) compared to the total number of insects (TI) in the test: […]

[5] = cyano-pyrethroid 0.3 ppm alone (bifenthrin 0 ppm)
[6] = cyano-pyrethroid 1.0 ppm alone (bifenthrin 0 ppm)
[7] = cyano-pyrethroid 3.0 ppm alone (bifenthrin 0 ppm)
[8] = cyano-pyrethroid 10.0 ppm alone (bifenthrin 0 ppm)
[9] = cyano-pyrethroid 30.0 ppm alone (bifenthrin 0 ppm)
[10] = cyano-pyrethroid 100.0 ppm alone (bifenthrin 0 ppm)
[11] = cyano-pyrethroid 0.3 ppm alone (bifenthrin 0.0 ppm)
[12] = cyano-pyrethroid 1.0 ppm alone (bifenthrin 0.0 ppm)
[13] = cyano-pyrethroid 3.0 ppm alone (bifenthrin 0.0 ppm)
[14] = cyano-pyrethroid 10.0 ppm alone (bifenthrin 0.0 ppm)
[15] = cyano-pyrethroid 200.0 ppm alone (bifenthrin 0 ppm)

CC1(C)[C@H](C(=O)O[C@H](C#N)c2cccc(Oc3ccccc3)c2)[C@@H]1/C=C(\Cl)C(F)(F)F (racemic) [lambda-cyhalothrin, (S)-α-cyano-3-phenoxybenzyl-(Z)-(1R)-cis-3-(2-chloro-3,3,3-trifluoropropenyl)-2,2-dimethylcyclopropanecarboxylate and (R)-α-cyano-3-phenoxybenzyl-(Z)-(1S)-cis-3-(2-chloro-3,3,3-trifluoropropenyl)-2,2-dimethylcyclopropanecarboxylate] was tested, and the “% Mortality Adult Colorado Potato Beetle” value [1, 5] was 30%, the “% Mortality Adult Colorado Potato Beetle” value [1, 6] was 100% and the “% Mortality Adult Colorado Potato Beetle” value [1, 7] was 100%. The “% Mortality Adult Colorado Potato Beetle” value [1, 8] was 100%, the “% Mortality Cotton Aphid” value [2, 8] was 11% and the “% Mortality Cotton Aphid” value [2, 9] was 11%. The “% Mortality Cotton Aphid” value [2, 10] was 10%, the “% Mortality Twospotted Spider Mite” value [3, 8] was 16% and the “% Mortality Twospotted Spider Mite” value [3, 9] was 19%. For the same compound, the “% Mortality Twospotted Spider Mite” value ([3]; cyano-pyrethroid 60.0 ppm alone (bifenthrin 0 ppm)) was 55%, the “% Mortality Twospotted Spider Mite” value [3, 10] was 39% and the “% Mortality Corn Earworm” value [4, 11] was 6%. For the same compound, the “% Mortality Corn Earworm” value [4, 12] was 31%, the “% Mortality Corn Earworm” value [4, 13] was 56% and the “% Mortality Corn Earworm” value [4, 14] was 100%.

In the case of CC1(C)[C@H](C(=O)O[C@H](C#N)c2cccc(Oc3ccccc3)c2)[C@@H]1C=C(Br)Br [delta-methrin, (S)-α-cyano-3-phenoxybenzyl (1R)-cis-3-(2,2-dibromovinyl)-2,2-dimethylcyclopropanecarboxylate], the “% Mortality Adult Colorado Potato Beetle” value [1, 5] is reported as 0%, the “% Mortality Adult Colorado Potato Beetle” value [1, 6] is reported as 30% and the “% Mortality Adult Colorado Potato Beetle” value [1, 7] is reported as 90%. For the same compound, the “% Mortality Adult Colorado Potato Beetle” value [1, 8] was 100%, the “% Mortality Cotton Aphid” value [2, 9] was 7% and the “% Mortality Cotton Aphid” value [2, 10] was 8%. The “% Mortality Cotton Aphid” value [2, 15] was 19%, the “% Mortality Twospotted Spider Mite” value [3, 8] was 3% and the “% Mortality Twospotted Spider Mite” value [3, 9] was 83%. The “% Mortality Twospotted Spider Mite” value [3, 10] was 26%, the “% Mortality Twospotted Spider Mite” value [3, 15] was 16% and the “% Mortality Corn Earworm” value [4, 11] was 6%. The “% Mortality Corn Earworm” value [4, 12] was 50%, the “% Mortality Corn Earworm” value [4, 13] was 94% and the “% Mortality Corn Earworm” value [4, 14] was 100%.

In the case of CC(C)[C@H](C(=O)O[C@H](C#N)c1cccc(Oc2ccccc2)c1)c1ccc(Cl)cc1 [esfenvalerate, (S)-α-cyano-3-phenoxybenzyl (S)-2-(4-chlorophenyl)-3-methylbutyrate], the “% Mortality Adult Colorado Potato Beetle” value [1, 5] is reported as 0%, the “% Mortality Adult Colorado Potato Beetle” value [1, 6] is reported as 0% and the “% Mortality Adult Colorado Potato Beetle” value [1, 7] is reported as 5%. For the same compound, the “% Mortality Adult Colorado Potato Beetle” value [1, 8] was 95%, the “% Mortality Cotton Aphid” value [2, 9] was 38% and the “% Mortality Cotton Aphid” value [2, 10] was 14%. The “% Mortality Cotton Aphid” value [2, 15] was 15%, the “% Mortality Twospotted Spider Mite” value [3, 8] was 21% and the “% Mortality Twospotted Spider Mite” value [3, 9] was 25%. For the same compound, the “% Mortality Twospotted Spider Mite” value [3, 10] was 71%, the “% Mortality Twospotted Spider Mite” value [3, 15] was 91% and the “% Mortality Corn Earworm” value [4, 11] was 0%. The “% Mortality Corn Earworm” value [4, 12] was 0%, the “% Mortality Corn Earworm” value [4, 13] was 13% and the “% Mortality Corn Earworm” value [4, 14] was 50%.
